Laboratory results from patent publication US4001419A, “1'-Substituted xanthene-9-spiro-4'-piperidine derivatives” (Imperial Chemical Industries Limited, priority 1974, dated 1977).
Like-named read-outs stand apart in the source and are kept apart here.

Assay: LD50 (acute toxicity)
Parameters: species or system mice
Conditions: mouse, in vivo
Protocol: All the compounds exemplified in this specification are active on at least one of these standard tests at a dose of equal to or less than 100 mg./kg. of the free base. […] Other LD50 values for compounds of the invention when dosed intravenously are as follows: […]

[1] = intravenous, read-out: LD50 when dosed intravenously

Compound	LD50 [1]	LD50 (mice, oral, read-out: oral LD50)
CC(=O)Oc1cccc2c1Oc1cc(Cl)ccc1C21CCN(C)CC1 [4-OAc H 6-Cl H]	> 35 mg/kg	
CN1CCC2(CC1)c1ccc(Cl)cc1Oc1c(O)cccc12 [6-chloro-4-hydroxy-1'-methylxanthene-9-spiro-4'-piperidine]	> 25 mg/kg	> 200 mg/kg
COc1ccc2c(c1)Oc1c(OC(C)=O)cccc1C21CCN(C)CC1 [4-OAc H 6-OMe H]	> 20 mg/kg	
CN1CCC2(CC1)c1cccc(O)c1Oc1cccc(F)c12 [4-OH H 8-F H]	> 20 mg/kg	
CSc1ccc2c(c1)Oc1c(OC(C)=O)cccc1C21CCN(C)CC1 [4-OAc H 6-SMe H]	> 40 mg/kg	
